According to ChEMBL document CHEMBL4311954, “Synthesis, biological evaluation, and docking studies of new raloxifene sulfonate or sulfamate derivatives as inhibitors of nucleotide pyrophosphatase/phosphodiesterase” (Eur J Med Chem, 2019):
Where a name gives a salt, the structure may show the parent alone.

How the values were obtained:
HT-29 [1] = test: Antiproliferative activity against human HT-29 cells assessed as cell viability at 10 uM after 72 hrs by MTT assay relative to control; format: functional; conditions: HT-29, 72 h, read-out: Activity
[2] = biological target: T1, Ectonucleotide pyrophosphatase/phosphodiesterase family member 1 (Homo sapiens, UniProt P22413); test: Inhibition of human NPP1 expressed in COS-7 cell membranes assessed as reduction in p-nitrophenol production using pNP-TMP as substrate preincubated with enzyme for 15 mins followed by substrate addition and measured after 35 mins
T1 sequence (P22413 whole entry): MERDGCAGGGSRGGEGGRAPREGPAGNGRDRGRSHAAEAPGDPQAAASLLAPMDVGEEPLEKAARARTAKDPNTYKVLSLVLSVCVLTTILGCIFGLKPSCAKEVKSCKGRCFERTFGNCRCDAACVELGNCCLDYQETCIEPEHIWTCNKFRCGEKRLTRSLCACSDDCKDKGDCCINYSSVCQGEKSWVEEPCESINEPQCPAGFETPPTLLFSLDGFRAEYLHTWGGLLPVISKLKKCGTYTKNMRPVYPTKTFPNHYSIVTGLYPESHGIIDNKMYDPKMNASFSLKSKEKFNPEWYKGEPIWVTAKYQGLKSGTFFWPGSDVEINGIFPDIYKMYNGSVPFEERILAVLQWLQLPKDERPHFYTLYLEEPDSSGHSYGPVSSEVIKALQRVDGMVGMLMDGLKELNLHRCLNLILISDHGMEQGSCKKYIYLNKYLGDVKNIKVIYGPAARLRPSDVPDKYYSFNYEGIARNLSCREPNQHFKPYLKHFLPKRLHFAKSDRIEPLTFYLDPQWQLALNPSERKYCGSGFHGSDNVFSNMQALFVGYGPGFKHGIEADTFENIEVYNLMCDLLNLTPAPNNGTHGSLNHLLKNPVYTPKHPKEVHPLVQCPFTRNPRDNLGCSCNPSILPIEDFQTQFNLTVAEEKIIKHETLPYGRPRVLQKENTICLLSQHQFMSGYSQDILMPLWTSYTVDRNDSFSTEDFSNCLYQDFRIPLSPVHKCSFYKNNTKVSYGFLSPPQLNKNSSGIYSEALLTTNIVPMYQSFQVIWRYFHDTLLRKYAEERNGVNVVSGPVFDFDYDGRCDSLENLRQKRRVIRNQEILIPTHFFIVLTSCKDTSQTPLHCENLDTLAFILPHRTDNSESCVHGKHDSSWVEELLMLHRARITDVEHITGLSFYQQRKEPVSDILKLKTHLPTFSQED

A549 [3] = test: Antiproliferative activity against human A549 cells assessed as cell viability at 10 uM after 72 hrs by MTT assay relative to control; format: functional; conditions: A549, 72 h, read-out: Activity
MCF7 [4] = test: Antiproliferative activity against human MCF7 cells assessed as cell viability at 10 uM after 72 hrs by MTT assay relative to control; format: functional; conditions: MCF7, 72 h, read-out: Activity
[5] = biological target: T2, Ectonucleotide pyrophosphatase/phosphodiesterase family member 3 (Homo sapiens, UniProt O14638); test: Inhibition of human NPP3 expressed in COS-7 cell membranes assessed as reduction in p-nitrophenol production using pNP-TMP as substrate preincubated with enzyme for 15 mins followed by substrate addition and measured after 35 mins
T2 sequence (O14638 whole entry): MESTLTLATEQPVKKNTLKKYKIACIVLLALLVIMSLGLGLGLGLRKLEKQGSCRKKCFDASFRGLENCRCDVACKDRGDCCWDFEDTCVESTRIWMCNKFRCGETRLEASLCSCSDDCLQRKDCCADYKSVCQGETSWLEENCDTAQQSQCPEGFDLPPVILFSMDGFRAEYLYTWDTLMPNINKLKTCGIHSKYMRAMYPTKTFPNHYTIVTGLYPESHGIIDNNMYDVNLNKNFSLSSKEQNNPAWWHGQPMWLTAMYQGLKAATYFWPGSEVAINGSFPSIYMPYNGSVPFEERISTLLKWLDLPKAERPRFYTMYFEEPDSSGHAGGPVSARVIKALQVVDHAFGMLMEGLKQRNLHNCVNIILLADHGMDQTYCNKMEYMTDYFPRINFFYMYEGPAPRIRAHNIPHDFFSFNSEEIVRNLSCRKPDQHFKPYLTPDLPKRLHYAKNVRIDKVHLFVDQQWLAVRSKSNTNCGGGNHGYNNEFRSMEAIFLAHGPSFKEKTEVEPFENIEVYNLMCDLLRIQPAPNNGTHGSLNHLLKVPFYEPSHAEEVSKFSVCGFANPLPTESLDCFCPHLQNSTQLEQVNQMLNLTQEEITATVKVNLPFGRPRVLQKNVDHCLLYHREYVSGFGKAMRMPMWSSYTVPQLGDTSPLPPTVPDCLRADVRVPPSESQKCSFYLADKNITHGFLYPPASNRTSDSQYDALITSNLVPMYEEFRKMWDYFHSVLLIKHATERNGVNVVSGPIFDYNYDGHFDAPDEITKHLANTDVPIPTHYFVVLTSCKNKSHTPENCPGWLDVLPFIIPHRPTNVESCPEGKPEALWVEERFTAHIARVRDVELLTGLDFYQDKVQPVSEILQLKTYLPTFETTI

HT-29 [6] = test: Antiproliferative activity against human HT-29 cells assessed as reduction in cell viability after 48 hrs by MTT assay; format: functional, cell-based; conditions: HT-29, 48 h
A549 [7] = test: Antiproliferative activity against human A549 cells assessed as reduction in cell viability after 48 hrs by MTT assay; format: functional, cell-based; conditions: A549, 48 h
[8] = Selectivity index, ratio of IC50 for human F180 cells to IC50 for human HT-29 cells
MCF7 [9] = test: Antiproliferative activity against human MCF7 cells assessed as reduction in cell viability after 48 hrs by MTT assay; format: functional, cell-based; conditions: MCF7, 48 h
[10] = Cytotoxicity against human F180 cells assessed as reduction in cell viability after 48 hrs by MTT assay; format: cell-based; conditions: F180, 48 h
[11] = biological target: T3, Ectonucleotide pyrophosphatase/phosphodiesterase family member 3 (Homo sapiens) (UniProt O14638); test: Inhibition of human NPP3 expressed in COS-7 cell membranes assessed as reduction in p-nitrophenol production at 100 uM using pNP-TMP as substrate preincubated with enzyme for 15 mins followed by substrate addition and measured after 35 mins relative to control
T3 sequence (whole entry): T2 sequence (O14638 whole entry)

[12] = biological target: T4, Ectonucleotide pyrophosphatase/phosphodiesterase family member 1 (Homo sapiens) (UniProt P22413); test: Inhibition of human NPP1 expressed in COS-7 cell membranes assessed as reduction in p-nitrophenol production at 100 uM using pNP-TMP as substrate preincubated with enzyme for 15 mins followed by substrate addition and measured after 35 mins relative to control
T4 sequence (whole entry): T1 sequence (P22413 whole entry)

SMILES	viability at 10 µM (HT-29 [1]) [%]	IC50 [2] [µM]	viability at 10 µM (A549 [3]) [%]	viability at 10 µM (MCF7 [4]) [%]	IC50 [5] [µM]	IC50 (HT-29 [6]) [µM]	IC50 (A549 [7]) [µM]	Ratio IC50 [8]	IC50 (MCF7 [9]) [µM]	IC50 [10] [µM]	inhibition [11] [%]	inhibition [12] [%]
O=C(c1ccc(OCCN2CCCCC2)cc1)c1c(-c2ccc(OS(=O)(=O)c3ccc(F)cc3)cc2)sc2cc(OS(=O)(=O)c3ccc(F)cc3)ccc12	108	8.88	105	115	1.81							
CC(C)(C)c1ccc(S(=O)(=O)Oc2ccc(-c3sc4cc(OS(=O)(=O)c5ccc(C(C)(C)C)cc5)ccc4c3C(=O)c3ccc(OCCN4CCCCC4)cc3)cc2)cc1	9.9	0.29	7.3	12.1	0.71	1.4	6.7	8.43	3.2	11.8		
Cc1ccc(S(=O)(=O)Oc2ccc(-c3sc4cc(OS(=O)(=O)c5ccc(C)cc5)ccc4c3C(=O)c3ccc(OCCN4CCCCC4)cc3)cc2)cc1	72.4	0.45	95.2	116							38.5	
O=C(c1ccc(OCCN2CCCCC2)cc1)c1c(-c2ccc(OS(=O)(=O)c3ccc(C(F)(F)F)cc3)cc2)sc2cc(OS(=O)(=O)c3ccc(C(F)(F)F)cc3)ccc12	17.4	4.01	67.7	41	0.23	4	> 15		> 15	> 15		
COc1ccc(S(=O)(=O)Oc2ccc(-c3sc4cc(OS(=O)(=O)c5ccc(OC)cc5)ccc4c3C(=O)c3ccc(OCCN4CCCCC4)cc3)cc2)cc1	89.3	0.42	99.4	127	1.24							
CNS(=O)(=O)Oc1ccc(-c2sc3cc(OS(=O)(=O)NC)ccc3c2C(=O)c2ccc(OCCN3CCCCC3)cc2)cc1	11.5		58.9	37.2	1.55	1.7	13		6	> 15		36
CCS(=O)(=O)Oc1ccc(-c2sc3cc(OS(=O)(=O)CC)ccc3c2C(=O)c2ccc(OCCN3CCCCC3)cc2)cc1	62.2		90.2	118	1.51							35.1
O=C(c1ccc(OCCN2CCCCC2)cc1)c1c(-c2ccc(OS(=O)(=O)C3CCCCC3)cc2)sc2cc(OS(=O)(=O)C3CCCCC3)ccc12	109		104	136	0.49							30
O=C(c1ccc(OCCN2CCCCC2)cc1)c1c(-c2ccc(OS(=O)(=O)c3cccc4cccnc34)cc2)sc2cc(OS(=O)(=O)c3cccc4cccnc34)ccc12	110		99.2	129							42.5	28.7
O=C(c1ccc(OCCN2CCCCC2)cc1)c1c(-c2ccc(O)cc2)sc2cc(O)ccc12 [RALOXIFENE HYDROCHLORIDE]	107		87	77.7		> 15	> 15		> 15	> 15		
CN(C)S(=O)(=O)Oc1ccc(-c2sc3cc(OS(=O)(=O)N(C)C)ccc3c2C(=O)c2ccc(OCCN3CCCCC3)cc2)cc1	25	4.24	91.8	58		1.5	> 15		3.4	14	43.7	
